Experiments:
mice [1] = experiment: MK‐801‐induced hyperactivity test; type: in vivo; settings: 30 mg/kg i.p. 60 min before test, MK‐801 0.3 mg kg^−1 s.c., 20 min observation
Procedure: The tests were performed on male white mice of the Albino Swiss strain, whose weight was between 24 and 30 g in Experimental Medicine Center, Medical University of Lublin, Poland. The animals were housed (four/five per cage). Before conducting the experimental tests, the animals were subjected to an adaptation that lasted seven days. This consisted of keeping them in a room with relatively constant conditions: a temperature of 22 ± 1 °C, a humidity of 55 ± 5% and lighting that mimicked the natural day and night rhythm (12 h/12 h). Constant access to food and water was provided. Standard feed—LSM Motycz pelleted feed—and tap water were used. Mice were randomly allocated to study groups. Each group was represented by 8–10 animals, depending on the research schedule. The experiments were performed according to the procedures set out in the regulations for animal experiments: National Institute of Health Guidelines for the Care and Use of Laboratory Animals (8th edition) and to the European Community Council Directive for the Care and Use of Laboratory Animals of 22 September 2010 (2010/63/EU). The study was approved by the Local Ethical Committee in Lublin (number of ethical approvals: 27/2023). Tested compounds: FG‐1, FG‐4, FG‐5, FG‐6, FG‐7, FG‐8, and FG‐18 were finely ground in mortars with the addition of the emulsifier Tween‐80. A suspension was obtained, which was then diluted with aqueous solution of 0.5% methylcellulose (tylose). The mixture was then administered intraperitoneally (i.p.) to the animals 60 min before the start of the experiments. Animals in the control groups received a 0.5% tylose solution. All substances were administered via the same route of administration in appropriate dose and volume of 0.1 mL per 10 g of animal body weight. Prior to the administration of the drug, the animals were weighed, during the interval between tests, they were provided with food, water, and constant living conditions. […]

mice [2] = experiment: Forced swim test (FST, Porsolt's test); type: in vivo
Procedure: The tests were performed on male white mice of the Albino Swiss strain, whose weight was between 24 and 30 g in Experimental Medicine Center, Medical University of Lublin, Poland. The animals were housed (four/five per cage). Before conducting the experimental tests, the animals were subjected to an adaptation that lasted seven days. This consisted of keeping them in a room with relatively constant conditions: a temperature of 22 ± 1 °C, a humidity of 55 ± 5% and lighting that mimicked the natural day and night rhythm (12 h/12 h). Constant access to food and water was provided. Standard feed—LSM Motycz pelleted feed—and tap water were used. Mice were randomly allocated to study groups. Each group was represented by 8–10 animals, depending on the research schedule. The experiments were performed according to the procedures set out in the regulations for animal experiments: National Institute of Health Guidelines for the Care and Use of Laboratory Animals (8th edition) and to the European Community Council Directive for the Care and Use of Laboratory Animals of 22 September 2010 (2010/63/EU). The study was approved by the Local Ethical Committee in Lublin (number of ethical approvals: 27/2023). Tested compounds: FG‐1, FG‐4, FG‐5, FG‐6, FG‐7, FG‐8, and FG‐18 were finely ground in mortars with the addition of the emulsifier Tween‐80. A suspension was obtained, which was then diluted with aqueous solution of 0.5% methylcellulose (tylose). The mixture was then administered intraperitoneally (i.p.) to the animals 60 min before the start of the experiments. Animals in the control groups received a 0.5% tylose solution. All substances were administered via the same route of administration in appropriate dose and volume of 0.1 mL per 10 g of animal body weight. Prior to the administration of the drug, the animals were weighed, during the interval between tests, they were provided with food, water, and constant living conditions.
The study was carried out using the test proposed by R. Porsolt.^[ [46] ^] The method is based on the observation of an animal forced to swim in a confined space from which there is no escape. After an initial period of vigorous attempts to get out, the animal finally gives up on escaping. The test consists of immersing the mouse individually in a cylinder (diameter 10 cm, height 25 cm) filled with water (at a temperature of 23–25 °C) to a height of 10 cm for 6 min. In this test, two parameters were measured: immobility time in seconds (s), understood as the state in which the mouse makes only those movements that are necessary to keep the head above water, and the latency to the first immobility (s). Measurements were taken during the last 4 min of the experiment, starting from the 2nd to the 6th minute. At the end of each session, the animals were removed from the cylinders, dried with a towel, and placed near a heater until completely dry. Antidepressants typically show increased latency and decreased immobility in this test.

larval zebrafish = experiment: Light–dark transition assay in larval zebrafish; type: in vivo, zebrafish (Danio rerio); settings: 5 dpf larvae, 20 h incubation at maximum‐tolerated concentration (FG‐1 500 μM, FG‐18 25 μM)
Procedure: All experiments were conducted on zebrafish (Danio rerio) larvae up to 5 days post fertilization (dpf), therefore, in accordance with current European legislation, ethical permission to conduct assays was not required. However, housing and experimental procedures were performed in compliance with the National Institute of Health Guidelines for the Care and Use of Laboratory Animals and the European Union Directive of 22 September 2010 (2010/63/EU) on protecting animals used for scientific purposes. All efforts were taken to minimize larvae stress and suffering. Larvae were euthanized with an overdose of tricaine ([…]). […] Before the respective behavioral tests were conducted, larvae at 4 dpf were incubated for 20 h in different arylpiperazine derivatives solutions of maximum‐tolerated concentrations (MCTs), determined during toxicological screening.^[ [30], [32] ^] […] Basic locomotor activity was measured using an automated tracking device, Daniovision by Noldus, and the total distance traveled was quantified using EthoVision XT software of the same company (Wageningen, the Netherlands) over a 30 min long observation period. […] The PTZ‐induced hyperlocomotion (acute seizure assay) was assessed in 5 dpf larval zebrafish (after 20 h incubation with tested derivatives at MCTs). […] Similarly, the data were recorded as the distance traveled (mm) by larvae when exposed to alternating lightning. […]

[3] = 7.5 mg kg^−1 i.p. 60 min before test
[4] = 15 mg kg^−1 i.p. 60 min before test
[5] = 30 mg kg^−1 i.p. 60 min before test

| SMILES | MK‐801‐induced hyperactivity (mice [1]) | FST, latency to first immobility (mice [2]; [3]) | FST, total duration of immobility (mice [2]; [3]) | FST, latency to first immobility (mice [2]; [4]) | FST, total duration of immobility (mice [2]; [4]) | larval behavior under the dark conditions (light–dark transition) (larval zebrafish) | FST, latency to first immobility (mice [2]; [5]) | FST, total duration of immobility (mice [2]; [5]) |
| --- | --- | --- | --- | --- | --- | --- | --- | --- |
| O=C(NCCCN1CCN(c2ccc(C3=NCCS3)cc2)CC1)c1ccncc1 [FG‐6, N‐(3‐(4‐(4‐(4,5‐dihydrothiazol‐2‐yl) phenyl) piperazin‐1‐yl) propyl) isonicotinamide] | significant decrease in MK‐801‐induced hyperactivity | significant increase in latency to first immobility | significant decrease in immobility | significant increase in latency to first immobility | significant decrease in immobility |  |  |  |
| O=C(NCCCN1CCN(c2ccc(C3=NCCS3)cc2)CC1)C1CC2C=CC1C2 (stereo not drawn) [FG‐18, Endo‐ N‐(3‐(4‐(4‐(4,5‐dihydrothiazol‐2‐yl)phenyl)piperazin‐1‐yl)propyl) bicyclo[2.2.1]hept‐5‐ene‐2‐carboxamide] |  |  |  |  |  | influenced larval behavior under the dark conditions |  |  |
| O=C(NCCCN1CCN(c2ccccc2C2=NCCS2)CC1)c1ccncc1 [FG‐4, N‐(3‐(4‐(2‐(4,5‐dihydrothiazol‐2‐yl) phenyl) piperazin‐1‐yl) propyl) isonicotinamide] | significant decrease in MK‐801‐induced hyperactivity |  |  |  |  |  |  |  |
| O=C(NCCCN1CCN(c2cccc(C3=NCCS3)c2)CC1)c1ccncc1 [FG‐5, N‐(3‐(4‐(3‐(4,5‐dihydrothiazol‐2‐yl) phenyl) piperazin‐1‐yl) propyl) isonicotinamide] |  |  |  |  | significant decrease in immobility |  | significant increase in latency to first immobility | significant decrease in immobility |
| O=C(NCCCN1CCN(c2ccccc2C2=NCCS2)CC1)c1ccccn1 [FG‐1, N‐(3‐(4‐(2‐(4,5‐dihydrothiazol‐2‐yl) phenyl) piperazin‐1‐yl) propyl) picolinamide] | significant decrease in MK‐801‐induced hyperactivity |  |  |  | significant decrease in immobility | influenced larval behavior under the dark conditions | significant increase in latency to first immobility | significant decrease in immobility |
| O=C1C2C3C=CC(C3)C2C(=O)N1OCCCN1CCN(c2cccc(C3=NCCS3)c2)CC1 (centres unmarked) [FG‐8, 2‐(3‐(4‐(3‐(4,5‐dihydrothiazol‐2‐yl) phenyl) piperazin‐1‐yl) propoxy)‐3a,4,7,7a‐tetrahydro‐1H‐4,7‐methanoisoindole‐1,3(2H)‐dione] |  |  |  |  |  |  | significant increase in latency to first immobility | significant decrease in immobility |

From paper PMC12321279, “Novel 4,5‐Dihydrothiazole‐Phenylpiperazine Derivatives: Synthesis, Docking Studies and Pharmacological Evaluation as Serotonergic Agents” (Chemmedchem, 2025)
